Source: ChEMBL document CHEMBL1151352, “Antifeedant Diterpenes For the Gypsy Moth Larvae From Kalmia latifolia: Isolation and Characterization of Ten Grayanoids” (1980)

What was measured:
Assay type in all cases: functional
Lymantria dispar [1] = assay: Antifeedant activity in gypsy moth ten third-instar larvae at 32.5 ug/ml relative to control
Lymantria dispar [2] = assay: Antifeedant activity in gypsy moth ten third-instar larvae at 27 ug/ml relative to control
Lymantria dispar [3] = assay: Antifeedant activity in gypsy moth ten third-instar larvae at 45 ug/ml relative to control
Lymantria dispar [4] = assay: Antifeedant activity in gypsy moth ten third-instar larvae at 17.5 ug/ml relative to control
Lymantria dispar [5] = assay: Antifeedant activity in gypsy moth ten third-instar larvae at 2.5 ug/ml relative to control
Lymantria dispar [6] = assay: Antifeedant activity in gypsy moth ten third-instar larvae at 7.5 ug/ml relative to control
Lymantria dispar [7] = assay: Antifeedant activity in gypsy moth ten third-instar larvae at 15 ug/ml relative to control
Lymantria dispar [8] = assay: Antifeedant activity in gypsy moth ten third-instar larvae at 60 ug/ml relative to control
Lymantria dispar [9] = assay: Antifeedant activity in gypsy moth ten third-instar larvae at 30 ug/ml relative to control
Lymantria dispar [10] = assay: Antifeedant activity in gypsy moth ten third-instar larvae at 20 ug/ml relative to control

CC1(C)[C@@H](O)C[C@H]2[C@](C)(O)[C@@H]3CC[C@@H]4[C@@H](O)[C@@]3(C[C@@H](O)[C@@]21O)C[C@@]4(C)O [GRAYANOTOXIN III]
Activity (Lymantria dispar [1]): 49%

CC(=O)O[C@@H]1[C@@H](O)[C@]23C[C@@](C)(O)[C@H](CC[C@H]2[C@@](C)(O)[C@@H]2C[C@H](O)C(C)(C)[C@@]12O)[C@H]3O [KALMITOXIN III]
Activity (Lymantria dispar [2]): 99%

CC(=O)O[C@@H]1[C@@H](O)[C@@]2(O)[C@@H]([C@@H](O)[C@H](O)C2(C)C)[C@](C)(O)[C@@H]2CC[C@@H]3[C@@H](OC(C)=O)[C@]12C[C@@]3(C)O [KALMITOXIN VI]
Activity (Lymantria dispar [3]): 106%

C=C1[C@@H]2CC[C@@H]3[C@@H](O)[C@]2(C[C@@]3(C)O)[C@H](O)[C@@H](O)[C@@]2(O)[C@H]1C[C@H](O)C2(C)C [KALMITOXIN II]
Activity (Lymantria dispar [4]): 86%

CC(=O)O[C@@H]1[C@@H](OC(C)=O)[C@@]2(O)[C@@H]([C@@H]3O[C@@H]3C2(C)C)[C@](C)(O)[C@@H]2CC[C@@H]3[C@@H](O)[C@]12C[C@@]3(C)O [KALMITOXIN V]
Activity (Lymantria dispar [5]): 92%

CC(=O)O[C@@H]1[C@@H](O)[C@@]23C[C@@H](CC[C@H]2[C@@](C)(O)[C@@H]2[C@@H]4O[C@@H]4C(C)(C)[C@@]12O)[C@](C)(O)C3 [LYONIOL A]
Activity (Lymantria dispar [6]): 95%

C=C1[C@@H]2CC[C@@H]3[C@@H](O)[C@@]2(C[C@@H](O)[C@@]2(O)[C@H]1C[C@H](O)C2(C)C)C[C@@]3(C)O
Activity (Lymantria dispar [7]): 65%

CC1(C)[C@@H](O)C[C@H]2[C@](C)(O)[C@@H]3CC[C@@H]4[C@@H](O)[C@]3(C[C@@]4(C)O)[C@H](O)[C@@H](O)[C@@]21O [KALMITOXIN I]
Activity (Lymantria dispar [8]): 23%

CC(=O)O[C@@H]1[C@@H](O)[C@]23C[C@@](C)(O)[C@H](CC[C@H]2[C@@](C)(O)[C@@H]2[C@@H]4O[C@@H]4C(C)(C)[C@@]12O)[C@H]3O [KALMOTOXIN IV]
Activity (Lymantria dispar [9]): 47%

C=C1[C@@H]2CC[C@@H]3C[C@@]2(C[C@@H](O)[C@@]2(O)[C@H]1C[C@H](O)C2(C)C)C[C@@]3(C)O
Activity (Lymantria dispar [10]): 121%
